Results taken from patent publication US8173654B2, “Triazolopyridazine compounds” (Janssen Pharmaceutica N.V., priority 2005, dated 2012).

What was measured:
[1] = target: T1, c-Met (Homo sapiens, UniProt P08581); test: Cell based ELISA assay for HGF stimulated c-Met phosphorylation in S114 cells; parameters: expressed in transfected cells; host or cells: S114 (murine NIH 3T3 derived); conditions: read-out: c-Met Cell ELISA IC-50
Method: A cell based ELISA assay was developed to evaluate the ability of compounds to inhibit HGF stimulated c-Met phosphorylation in cells.
S114 cells were seeded to a 96 well tissue culture treated dish at a concentration of 5×10^4 per well. After a 16-20 hour incubation, culture medium was removed and replaced with serum free medium supplemented with 0.5% BSA. Test compound was then added and incubated with the cells for 60 minutes, followed by the addition of 1 μl HGF at […] for 15 minutes. […] Following another 1 hour incubation at room temperature the plates were washed three times with Delfia wash buffer (Perkin Elmer). After the final wash, […] of Delfia enhancer solution (Perkin Elmer) was added and allowed to incubate for 60 minutes. Plates were read on an LJL Analyst instrument (Molecular Devices; Sunnyvale, Calif.) with filter settings of 360 excitation, 620 emission, and 410 dichroic. IC50 values were calculated using Graphpad Prism software (Graphpad Software; San Diego, Calif.).
Target sequence in this assay (P08581 25-1390): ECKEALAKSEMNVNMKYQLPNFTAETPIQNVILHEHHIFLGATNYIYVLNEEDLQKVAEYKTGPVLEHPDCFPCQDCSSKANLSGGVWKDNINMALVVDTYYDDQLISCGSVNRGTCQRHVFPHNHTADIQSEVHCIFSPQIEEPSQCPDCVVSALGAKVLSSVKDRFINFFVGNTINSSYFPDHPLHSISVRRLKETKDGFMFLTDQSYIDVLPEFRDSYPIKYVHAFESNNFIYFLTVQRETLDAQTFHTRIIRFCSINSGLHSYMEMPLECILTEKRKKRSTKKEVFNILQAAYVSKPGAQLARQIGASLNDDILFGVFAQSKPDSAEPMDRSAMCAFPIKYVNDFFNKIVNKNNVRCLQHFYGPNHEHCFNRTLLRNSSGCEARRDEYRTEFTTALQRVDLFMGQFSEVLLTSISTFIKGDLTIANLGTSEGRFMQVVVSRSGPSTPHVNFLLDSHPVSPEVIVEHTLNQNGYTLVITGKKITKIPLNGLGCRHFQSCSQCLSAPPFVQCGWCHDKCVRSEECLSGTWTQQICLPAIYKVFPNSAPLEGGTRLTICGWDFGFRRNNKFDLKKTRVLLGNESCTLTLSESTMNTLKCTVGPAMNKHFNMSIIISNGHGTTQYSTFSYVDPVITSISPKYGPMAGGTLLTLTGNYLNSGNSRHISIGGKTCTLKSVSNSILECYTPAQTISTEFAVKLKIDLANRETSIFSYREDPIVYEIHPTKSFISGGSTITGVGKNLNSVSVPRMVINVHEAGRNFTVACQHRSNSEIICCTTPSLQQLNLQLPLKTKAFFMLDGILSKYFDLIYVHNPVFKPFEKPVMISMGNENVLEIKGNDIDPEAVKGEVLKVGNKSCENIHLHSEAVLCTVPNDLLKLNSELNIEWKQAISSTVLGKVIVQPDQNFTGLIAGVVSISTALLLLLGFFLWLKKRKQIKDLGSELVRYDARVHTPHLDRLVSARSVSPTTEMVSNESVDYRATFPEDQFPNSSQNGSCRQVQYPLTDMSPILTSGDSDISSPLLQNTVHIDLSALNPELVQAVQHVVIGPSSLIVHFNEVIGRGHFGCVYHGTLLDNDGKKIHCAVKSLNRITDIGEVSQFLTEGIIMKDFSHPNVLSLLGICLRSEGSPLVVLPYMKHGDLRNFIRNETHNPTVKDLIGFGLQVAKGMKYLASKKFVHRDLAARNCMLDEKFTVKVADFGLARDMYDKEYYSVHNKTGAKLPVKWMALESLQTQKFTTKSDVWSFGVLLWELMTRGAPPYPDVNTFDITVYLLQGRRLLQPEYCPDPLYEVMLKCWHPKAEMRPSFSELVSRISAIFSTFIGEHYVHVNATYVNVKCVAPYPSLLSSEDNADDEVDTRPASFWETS

[2] = target: T1, c-Met; test: Delfia autophosphorylation kinase assay on the c-Met; assay type: biochemical; parameters: The purified His6 tagged cytoplasmic domain of c-Met was diluted to a concentration of 500 ng/ml; host or cells: Sf9 insect cells (baculovirus, pFastBacHTa); conditions: His6 tagged cytoplasmic domain of c-Met, 1 μM ATP; read-out: cMet Delfia autophos IC-50
Method: A DELFIA time resolved fluorescence assay was developed for screening of compounds that decreases the autophosphorylation thus the kinase activity of c-Met. The DELFIA assay is non-radioactive. The autophosphorylation of the c-Met is measured by an anti-phosphotyrosine antibody coupled to an Europium tag.
A major advantage of this format is that it allowed for the development of an autophosphorylation assay using Ni-chelate plates which bind the hexa-his tag on the recombinant Met kinase. The autophosphorylation assay allows one to use a known substrate, Met kinase itself, for the phosphorylation.
The assay procedure for screening is as follows. The purified His6 tagged cytoplasmic domain of c-Met was diluted to a concentration of 500 ng/ml in enzyme dilution buffer (50 mM Tris-HCl, pH8.0, 0.1% BSA) and dispensed to assay plates at a volume of 50 μl per well. Black opaque HisGrab Nickel coated 96 well plates (Pierce, Rockford, Ill.) were selected for use. Next, 2.5 μl of compound in 40% DMSO was added to test wells, 2.5 μl of 40% DMSO only was added to the negative control wells. The autophosphorylation reaction was initiated upon the addition of 50 μl of reaction buffer, 50 mM Tris-HCl, pH 8.0, 10 mM MgCl2, 0.1 mM Na3VO4, 1 mM DTT, 1 μM ATP. Plates were incubated at room temperature for 1 hour followed by 2 washes with 200 μl/well of PBS. Europium conjugated anti-phosphotyrosine antibody, Eu-PY20 from Perkin Elmer was diluted to 50 ng/ml in Delfia AB buffer (Perkin Elmer, Boston, Mass.), added to the 96 well assay plates at a volume of 100 μl/well, and incubated at room temperature for 2 hours. Assay plates were then washed 4 times each with 200 μl/well of Delfia wash buffer (Perkin Elmer). After the final wash 150 μl of Delfia Enhancement solution (Perkin Elmer) was added to each well of the assay plate and incubated at room temperature for 1 hour. Plates were read on an LJL Analyst instrument (Molecular Devices; Sunnyvale, Calif.) with filter settings of 360 excitation, 620 emission, and 410 dichroic. IC50 values were calculated using Graphpad Prism software (Graphpad Software; San Diego, Calif.).
Target sequence in this assay (P08581 956-1390 limits assumed): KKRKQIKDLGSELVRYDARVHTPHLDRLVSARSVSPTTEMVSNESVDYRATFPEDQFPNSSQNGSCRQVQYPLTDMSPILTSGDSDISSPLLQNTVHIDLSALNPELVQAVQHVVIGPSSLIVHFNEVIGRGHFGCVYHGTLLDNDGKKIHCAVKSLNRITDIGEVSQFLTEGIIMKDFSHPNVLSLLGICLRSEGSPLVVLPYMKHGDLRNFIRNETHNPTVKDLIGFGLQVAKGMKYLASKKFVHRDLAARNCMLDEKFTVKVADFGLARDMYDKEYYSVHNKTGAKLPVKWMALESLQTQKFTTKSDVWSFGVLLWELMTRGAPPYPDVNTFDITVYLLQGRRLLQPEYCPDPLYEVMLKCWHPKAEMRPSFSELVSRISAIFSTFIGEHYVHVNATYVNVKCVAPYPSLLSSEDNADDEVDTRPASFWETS

Structure (SMILES)	IC50 [1] [nM]	IC50 [2] [nM]
Cn1cc(-c2ccc3nnc(Cc4ccc5c(c4)CCO5)n3n2)cn1 [Example 62, 3-(2,3-Dihydro-benzofuran-5-ylmethyl)-6-(1-methyl-1H-pyrazol-4-yl)-[1,2,4]triazolo[4,3-b]pyridazine]	270	20
Oc1ccc(Cc2nnc3ccc(-c4cn[nH]c4)nn23)cc1 [Example 3, 4-[6-(1H-Pyrazol-4-yl)-[1,2,4]triazolo[4,3-b]pyridazin-3-ylmethyl]-phenol]	1030	16
c1cnc2ccc(Cc3nnc4ccc(-n5ccnc5)nn34)cc2c1 [Example 43, 6-(6-Imidazol-1-yl-[1,2,4]triazolo[4,3-b]pyridazin-3-ylmethyl)-quinoline]	140	11
FC(F)(c1ccc2ncccc2c1)c1nnc2ccc(-c3ccnc(Cl)c3)nn12 [Example 100b, 6-{[6-(2-Chloro-pyridin-4-yl)-[1,2,4]triazolo[4,3-b]pyridazin-3-yl]-difluoro-methyl}-quinoline]	34	2
C#Cc1cc(-c2ccc3nnc(C(F)(F)c4ccc5ncccc5c4)n3n2)ccn1 [Example 100, 6-{[6-(2-Ethynyl-pyridin-4-yl)-[1,2,4]triazolo[4,3-b]pyridazin-3-yl]-difluoro-methyl}-quinoline]	140	5
CN(C)CCCNC(=O)c1ccc(-c2ccc3nnc(Cc4ccc(O)cc4)n3n2)s1 [Example 49, 5-[3-(4-Hydroxy-benzyl)-[1,2,4]triazolo[4,3-b]pyridazin-6-yl]-thiophene-2-carboxylic acid (3-dimethylamino-propyl)-amide]	343	2.1
c1csc(-c2ccc3nnc(Cc4ccncc4)n3n2)c1 [Example 33, 3-Pyridin-4-ylmethyl-6-thiophen-2-yl-[1,2,4]triazolo[4,3-b]pyridazine]	9900	96
COc1ccc(Cc2nnc3ccc(-c4cccs4)nn23)cc1 [Example 25, 3-(4-Methoxy-benzyl)-6-thiophen-2-yl-[1,2,4]triazolo[4,3-b]pyridazine]	483	41
CC(C)N1CCN(C(=O)c2ccc(-c3ccc4nnc(Cc5ccc6ncccc6c5)n4n3)s2)CC1 [Example 55, (4-Isopropyl-piperazin-1-yl)-[5-(3-quinolin-6-ylmethyl-[1,2,4]triazolo[4,3-b]pyridazin-6-yl)-thiophen-2-yl]-methanone]	1	1
COCCn1cc(-c2ccc3nnc(Cc4ccc5ncccc5c4)n3n2)cn1 [Example 16, 6-{6-[1-(2-Methoxy-ethyl)-1H-pyrazol-4-yl]-[1,2,4]triazolo[4,3-b]pyridazin-3-ylmethyl}-quinoline]	295	9
COc1ccc(Cc2nnc3ccc(-c4cccs4)nn23)cn1 [Example 31, 3-(6-Methoxy-pyridin-3-ylmethyl)-6-thiophen-2-yl-[1,2,4]triazolo[4,3-b]pyridazine]	2400	77
CN1CCN(C(=O)c2ccc(-c3ccc4nnc(C(F)(F)c5ccc6c(c5)CCO6)n4n3)s2)CC1 [Example 103, (5-{3-[(2,3-Dihydro-benzofuran-5-yl)-difluoro-methyl]-[1,2,4]triazolo[4,3-b]pyridazin-6-yl}-thiophen-2-yl)-(4-methyl-piperazin-1-yl)-methanone]	210	4
c1cnc2ccc(Cc3nnc4ccc(-c5cc6ccccc6s5)nn34)cc2c1 [Example 72, 6-(6-Benzo[b]thiophen-2-yl-[1,2,4]triazolo[4,3-b]pyridazin-3-ylmethyl)-quinoline]	0.2	0.3
Brc1cn(-c2ccc3nnc(Cc4ccc5ncccc5c4)n3n2)cn1 [Example 44, 6-[6-(4-Bromo-imidazol-1-yl)-[1,2,4]triazolo[4,3-b]pyridazin-3-ylmethyl]-quinoline]	143	2
c1csc(-c2ccc3nnc(Cc4ccc5c(c4)OCO5)n3n2)c1 [Example 37, 3-Benzo[1,3]dioxol-5-ylmethyl-6-thiophen-2-yl-[1,2,4]triazolo[4,3-b]pyridazine]	346	16
Oc1ccc(Cc2nnc3ccc(-c4nccs4)nn23)cc1 [Example 18, 4-(6-Thiazol-2-yl-[1,2,4]triazolo[4,3-b]pyridazin-3-ylmethyl)-phenol]	86	10
FC(F)(c1ccc2ncccc2c1)c1nnc2ccc(-c3cnc4ccccc4c3)nn12 [Example 66, 6-[Difluoro-(6-quinolin-3-yl-[1,2,4]triazolo[4,3-b]pyridazin-3-yl)-methyl]-quinoline]	5	0.9
COc1ccc(Cn2cnc3ccc(Cc4nnc5ccc(-c6cccnc6)nn45)cc3c2=O)cc1 [Example 68, 3-(4-Methoxy-benzyl)-6-(6-pyridin-3-yl-[1,2,4]triazolo[4,3-b]pyridazin-3-ylmethyl)-3H quinazolin-4-one]	30	2
c1cc(-c2ccc3nnc(Cc4ccc5c(c4)CCO5)n3n2)ccn1 [Example 7, 3-(2,3-Dihydro-benzofuran-5-ylmethyl)-6-pyridin-4-yl-[1,2,4]triazolo[4,3-b]pyridazine]	2150	111

Second part, the compound after the results:

IC50 [1] [nM]	IC50 [2] [nM]	Structure (SMILES)
215	15	Nc1nc2ccc(Cc3nnc4ccc(-c5cccnc5)nn34)cc2s1 [Example 13, 6-(6-Pyridin-3-yl-[1,2,4]triazolo[4,3-b]pyridazin-3-ylmethyl)-benzothiazol-2-ylamine]
7	1	CCCc1ncc(-c2ccc3nnc(Cc4ccc5ncccc5c4)n3n2)s1 [Example 20, 6-[6-(2-Propyl-thiazol-5-yl)-[1,2,4]triazolo[4,3-b]pyridazin-3-ylmethyl]-quinoline]
88	2	CS(=O)(=O)n1cc(-c2ccc3nnc(Cc4ccc5ncccc5c4)n3n2)cn1 [Example 15, 6-[6-(1-Methanesulfonyl-1H-pyrazol-4-yl)-[1,2,4]triazolo[4,3-b]pyridazin-3-ylmethyl]-quinoline]
540	3	O=c1ccc(-c2ccc3nnc(Cc4ccc5ncccc5c4)n3n2)c[nH]1 [Example 90, 5-(3-Quinolin-6-ylmethyl-[1,2,4]triazolo[4,3-b]pyridazin-6-yl)-1H-pyridin-2-one]
160	12	N#Cc1ccc(-c2ccc3nnc(Cc4ccc5ncccc5c4)n3n2)cn1 [Example 96, 5-(3-Quinolin-6-ylmethyl-[1,2,4]triazolo[4,3-b]pyridazin-6-yl)-pyridine-2-carbonitrile]
112	8	c1cnc2ccc(Cc3nnc4ccc(-c5ccncc5)nn34)cc2c1 [Example 6, 6-(6-Pyridin-4-yl-[1,2,4]triazolo[4,3-b]pyridazin-3-ylmethyl)-quinoline]
10	4	Cc1nc2ccc(Cc3nnc4ccc(-c5cccnc5)nn34)cc2s1 [Example 92, 3-(2-Methyl-benzothiazol-6-ylmethyl)-6-pyridin-3-yl-[1,2,4]triazolo[4,3-b]pyridazine]
130	4	Cn1cc(-c2ccc3nnc(Cc4ccc5nc(N)sc5c4)n3n2)cn1 [Example 93, 6-[6-(1-Methyl-1H-pyrazol-4-yl)-[1,2,4]triazolo[4,3-b]pyridazin-3-ylmethyl]-benzothiazol-2-ylamine]
2	0.45	Nc1nc2ccc(Cc3nnc4ccc(-c5cccs5)nn34)cc2s1 [Example 38, 6-(6-Thiophen-2-yl-[1,2,4]triazolo[4,3-b]pyridazin-3-ylmethyl)-benzothiazol-2-ylamine]
